The structures appear in SMILES notation.

For test [1], the target named is T1, mTOR kinase (Homo sapiens, UniProt P42345).
T1 construct: purchased Millipore, USA
The test can be described thus: mTOR kinase TR-FRET assay. The class given is biochemical. The settings on record: read-out: mTO R. An outline of the steps: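 Compounds preincubated 60 min with mTOR (5 ng) in HEPES pH 7.5, EGTA, MnCl2; ULight-p70 S6K Thr389 peptide (50 nM) and ATP (20 μM) then added, 60 min at room temperature. EDTA-stopped, Eu-anti-phospho antibody detection by TR-FRET (665/615 nm); IC50 from variable-slope sigmoidal fit.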

Test [2] deals with T2, PI3Kα (wild-type), P110/P85α (Homo sapiens, UniProt P42336).
T2 construct: made in house; host or cells: SF9 insect cells
T2 sequence (P42336 whole entry): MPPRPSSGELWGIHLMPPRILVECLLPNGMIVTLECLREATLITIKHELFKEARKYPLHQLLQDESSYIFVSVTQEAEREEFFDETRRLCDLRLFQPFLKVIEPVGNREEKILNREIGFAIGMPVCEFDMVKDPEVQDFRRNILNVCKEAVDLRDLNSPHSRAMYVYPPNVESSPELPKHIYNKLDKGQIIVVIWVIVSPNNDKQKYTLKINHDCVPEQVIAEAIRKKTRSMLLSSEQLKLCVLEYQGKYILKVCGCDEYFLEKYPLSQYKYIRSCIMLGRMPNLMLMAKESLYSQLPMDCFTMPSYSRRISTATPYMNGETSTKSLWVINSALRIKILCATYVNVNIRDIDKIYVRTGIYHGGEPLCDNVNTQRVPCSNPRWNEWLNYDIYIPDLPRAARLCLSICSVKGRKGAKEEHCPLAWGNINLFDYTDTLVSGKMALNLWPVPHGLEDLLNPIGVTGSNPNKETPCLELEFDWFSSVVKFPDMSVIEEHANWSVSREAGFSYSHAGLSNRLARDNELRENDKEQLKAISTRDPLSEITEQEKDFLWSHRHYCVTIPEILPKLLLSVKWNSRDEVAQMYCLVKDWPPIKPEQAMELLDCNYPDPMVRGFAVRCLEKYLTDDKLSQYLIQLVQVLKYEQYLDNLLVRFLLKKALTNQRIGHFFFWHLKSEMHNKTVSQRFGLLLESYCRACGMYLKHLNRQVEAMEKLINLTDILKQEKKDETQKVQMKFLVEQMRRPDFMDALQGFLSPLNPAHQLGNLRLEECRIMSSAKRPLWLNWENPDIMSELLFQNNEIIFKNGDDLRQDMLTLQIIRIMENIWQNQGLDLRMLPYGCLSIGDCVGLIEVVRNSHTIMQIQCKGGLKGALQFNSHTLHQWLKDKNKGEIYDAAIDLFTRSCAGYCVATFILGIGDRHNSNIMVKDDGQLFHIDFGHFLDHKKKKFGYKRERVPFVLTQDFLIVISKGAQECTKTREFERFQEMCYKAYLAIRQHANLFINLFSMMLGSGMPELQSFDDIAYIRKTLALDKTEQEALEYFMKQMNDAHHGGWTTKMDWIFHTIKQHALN
T2 sequence (P27986 whole entry partner): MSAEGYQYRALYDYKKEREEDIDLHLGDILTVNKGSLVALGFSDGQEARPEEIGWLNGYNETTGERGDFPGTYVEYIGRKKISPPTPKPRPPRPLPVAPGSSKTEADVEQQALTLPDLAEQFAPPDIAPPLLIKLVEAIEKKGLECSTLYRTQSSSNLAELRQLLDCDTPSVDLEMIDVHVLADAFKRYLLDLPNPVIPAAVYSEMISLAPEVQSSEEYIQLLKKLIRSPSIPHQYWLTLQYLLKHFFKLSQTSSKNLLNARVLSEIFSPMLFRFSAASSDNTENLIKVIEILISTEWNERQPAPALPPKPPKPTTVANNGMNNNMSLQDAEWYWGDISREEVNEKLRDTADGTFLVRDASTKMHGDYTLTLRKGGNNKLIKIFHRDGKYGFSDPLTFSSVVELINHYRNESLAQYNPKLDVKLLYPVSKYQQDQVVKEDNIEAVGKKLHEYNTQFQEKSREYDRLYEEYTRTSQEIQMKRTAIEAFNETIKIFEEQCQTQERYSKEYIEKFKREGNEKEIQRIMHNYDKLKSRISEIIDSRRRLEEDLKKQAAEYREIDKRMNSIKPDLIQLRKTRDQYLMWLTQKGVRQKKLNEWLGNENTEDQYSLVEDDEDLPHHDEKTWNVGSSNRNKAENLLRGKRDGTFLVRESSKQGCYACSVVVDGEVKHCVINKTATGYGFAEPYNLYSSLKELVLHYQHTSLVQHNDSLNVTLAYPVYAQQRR
The test can be described thus: PI3 Kinase TR-FRET assay, PI3Kα (wild-type). Type of test: biochemical. The gist of the method: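 Sf9-expressed His-purified P110/P85α (5 ng) preincubated 60 min RT with compound and PIP2 in buffer with 40 mM MgCl2, 5 mM DTT; reaction started with ATP (PIP2 and ATP both 10 μM), 30 min RT. PIP3 detected by TR-FRET displacement, 665/615 nm ratio; IC50 from dose-response curves.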
In general terms: Time-resolved FRET reads energy transfer from a long-lived donor to a nearby acceptor.

For the molecule `Cc1ccc(-c2ccc3c(N4CCOCC4)nc(-c4ccc(NC(=O)Nc5ccc(C(=O)N(C)C)cc5F)cc4)nc3c2)cn1` [Example 166, 3-fluoro-N,N-dimethyl-4-(3-(4-(7-(6-methylpyridin-3-yl)-4-morpholino-quinazolin-2-yl)phenyl)ureido)-benzamide], the IC50 in test [1] and in test [2] was less than 0.05 µM throughout.

Regarding `Cc1ncccc1-c1ccc2c(N3CCOCC3)nc(-c3ccc(NC(=O)Nc4ccc(C(=O)N(C)C)cc4F)cc3)nc2c1` [Example 167, 3-fluoro-N,N-dimethyl-4-(3-(4-(7-(2-methylpyridin-3-yl)-4-morpholino-quinazolin-2-yl)phenyl)ureido)-benzamide], the IC50 in test [1] and in test [2] was less than 0.05 µM throughout.

With `CN(C)C(=O)c1ccc(NC(=O)Nc2ccc(-c3nc(N4CCOCC4)c4ccc(-c5ccccn5)cc4n3)cc2)c(F)c1` [Example 168, 3-fluoro-N,N-dimethyl-4-(3-(4-(4-morpholino-7-(pyridin-2-yl)quinazolin-2-yl)phenyl)ureido)-benzamide], the IC50 in test [1] and in test [2] was less than 0.05 µM each time.

Take `COc1ccncc1-c1ccc2c(N3CCOCC3)nc(-c3ccc(NC(=O)Nc4ccc(C(=O)N(C)C)cc4)cc3)nc2c1` [Example 169, 4-(3-(4-(7-(4-methoxypyridin-3-yl)-4-morpholino-quinazolin-2-yl)phenyl)ureido)-N,N-dimethyl-benzamide]: the IC50 in test [1] and in test [2] was less than 0.05 µM each time.

Take `COc1ccc(-c2ccc3c(N4CCOCC4)nc(-c4ccc(NC(=O)Nc5ccc(C(=O)N(C)C)cc5F)cc4)nc3c2)cn1` [Example 170, 3-fluoro-4-(3-(4-(7-(6-methoxypyridin-3-yl)-4-morpholino-quinazolin-2-yl)phenyl)ureido)-N,N-dimethyl-benzamide]: the IC50 was 0.05 to 0.2 µM in test [1] and less than 0.05 µM in test [2].

On to `CN(C)C(=O)c1ccc(NC(=O)Nc2ccc(-c3nc(N4CCOCC4)c4ccc(-c5ccco5)cc4n3)cc2)c(Cl)c1` [Example 171, 3-chloro-4-(3-(4-(7-(furan-2-yl)-4-morpholino-quinazolin-2-yl)phenyl)ureido)-N,N-dimethyl-benzamide], for which the IC50 in test [1] and in test [2] was 0.201 to 10 µM in each case.

For `CN(C)C(=O)c1ccc(NC(=O)Nc2ccc(-c3nc(N4CCOCC4)c4ccc(-c5cnn(C)c5)cc4n3)cn2)c(F)c1` [Example 172, 3-fluoro-N,N-dimethyl-4-(3-(5-(7-(1-methyl-1H-pyrazol-4-yl)-4-morpholino-quinazolin-2-yl)pyridin-2-yl)ureido)-benzamide], the IC50 is 0.201 to 10 µM in test [1] and less than 0.05 µM in test [2].

As to `CN(C)C(=O)c1ccc(NC(=O)Nc2ccc(-c3nc(N4CCOCC4)c4cc(F)c(-c5cccnc5)cc4n3)cc2)c(F)c1` [Example 173, 3-fluoro-4-(3-(4-(6-fluoro-4-morpholino-7-(pyridin-3-yl)quinazolin-2-yl)phenyl)ureido)-N,N-dimethyl-benzamide], the IC50 in test [1] and in test [2] was less than 0.05 µM throughout.

With `CN(C)C(=O)c1ccc(NC(=O)Nc2ccc(-c3nc(N4CCOCC4)c4cc(F)c(-c5cncnc5)cc4n3)cc2)c(F)c1` [Example 174, 3-fluoro-4-(3-(4-(6-fluoro-4-morpholino-7-(pyrimidin-5-yl)quinazolin-2-yl)phenyl)ureido)-N,N-dimethyl-benzamide], the IC50 in test [1] was less than 0.05 µM; in test [2], 0.05 to 0.2 µM.

`CN(C)C(=O)c1ccc(NC(=O)Nc2ccc(-c3nc(N4CCOCC4)c4cc(F)c(-c5cccnc5)cc4n3)cn2)cc1` [Example 175, 4-(3-(5-(6-fluoro-4-morpholino-7-(pyridin-3-yl)quinazolin-2-yl)pyridin-2-yl)ureido)-N,N-dimethyl-benzamide]: the IC50 in test [1] is 0.05 to 0.2 µM; in test [2] it was less than 0.05 µM.

The values above are taken from patent US9115092B2, “Substituted quinazoline and pyrido-pyrimidine derivatives” (Asana Biosciences, LLC, priority 2010, dated 2015).
